Columns and labels:
[1] = Nasogastric Tube Compatibility Study, impurities (HPLC); type: physicochemical
Method: (§1) Analytical HPLC Compatibility Study experiments (Example 2) were performed on Agilent 1200 Series, or equivalent; Waters XBridge C18 column, 5 μm 150×4.6 mm; mobile phase: Solvent A: 50 mM ammonium bicarbonate, pH 8.0; Solvent B: acetonitrile/methanol, 80:20 (v/v); Flow rate: 1 mL/min; Inj. Volume 60 μL; Autosampler Temp.: 5° C.; column temperature: 40° C.; the pooled limit of quantitation was 0.05% of 0.68 mg/mL; detection UV at 210 nm; sample concentration (as free base) assay: 0.034 mg/mL, impurity: 0.34 mg/mL; standard concentration (as free base) 0.034 mg/mL; PLOQ Std. 0.05% of 0.34 mg/mL; SST solution, 1% of 0.34 mg/mL (Impurities A, C, D, E, F, and G); diluent for standards 0.1N HCl; diluent for samples 0.1N HCl; run time, 40 min; gradient method: 0 min mobile phase A (90%) and mobile phase B (10%) to 30 min mobile phase A (0%), and mobile phase B (100%); then 30.1 min to 40 min mobile phase A (90%), mobile phase B (10%).
(§2) Three samples of pimavanserin in water (n=3) were prepared as follows. The content of one capsule was dropped into a 100 mL bottle, and the empty capsule shell was discarded. Approximately 40 mL of water was added into the bottle, and the bottle was swirled until the contents were disintegrated. Syringes were secured approximately 1 meter above the benchtop, and the plungers were removed. The Hydromer coating on the weighted top of the NG tube was activated by submerging the weight assembly in water for 10 seconds. The NG tube was flushed with 20 mL of water, and remaining water in the syringe and the NG tube was expelled with the help of the syringe plunger. The weighted tip of the NG tube was placed into 100 mL volumetric flasks on the benchtop.
(§3) For each sample, the aqueous dispersion was slowly poured into the syringe, allowing it to drain through the NG tube under gravity into the 100 mL collection volumetric flask. The original bottle containing the aqueous suspension of pimavanserin capsules was rinsed twice with 15 mL of water into the same syringe/NG tube system. The dispersion remaining in the syringe and NG tube was expelled with the help of the syringe plunger. Each flask was diluted to volume with 0.33N HCl (to make a final 0.1 N HCl concentration in the flask). The samples were sonicated for 15 minutes with intermediate shaking. A stir bar was added to the flask and the solution was stirred for 2 hours. An aliquot of each solution was centrifuged for 5 minutes at 10000 rom. The supernatant was transferred to a HPLC vial and injected for impurity analysis.
(§4) A “control” sample was prepared following the sample preparation procedure described above except it was not passed through a syringe/NG system. The content of one capsule was dropped into a 100 mL volumetric flask, and the empty capsule shell was discarded. Next 70 mL of water was added into the flask and swirled until the contents were completely disintegrated. The flask was diluted to volume with 0.33 N HCl (to make final 0.1N HCl concentration). The sample was sonicated for 15 minutes with intermediate shaking. A stir bar was dropped into the flask, and the solution was stirred for 2 hours. An aliquot was taken and centrifuged for 5 minutes at 10000 rpm. The supernatant was transferred to a HPLC vial and injected for impurity analysis.

[2] = Nasogastric Tube Compatibility Study, assay (HPLC); type: physicochemical
Method: as §1, §2, §3
Samples were prepared by transferring the stock solution using a 2.0 mL volumetric pipet into a 20 mL volumetric flask, diluted to volume with 0.1 N HCl, and mixed well by inversion. An aliquot of each solution was centrifuged for 5 minutes at 10000 rpm. The supernatant was transferred to a HPLC vial and injected for analysis.
as §4

In the case of CC(C)COc1ccc(CNC(=O)N(Cc2ccc(F)cc2)C2CCN(C)CC2)cc1 [Pimavanserin, N-(4-Fluorophenylmethyl)-N-(1-methylpiperidin-4-yl)-N′-(4-(2-methylpropyloxy)phenylmethyl)carbamide], the Imp-D ([1]; NG Tube Control) is reported as 0.13 % w/w, the “Impurity RRT-0.36” value ([1]; NG Tube Control) is reported as 0.05 % w/w and the “Impurity RRT-0.54” value ([1]; NG Tube Control) is reported as 0.07 % w/w. For the same molecule, the “Impurity RRT-0.96” value ([1]; NG Tube Control) was 0.06 % w/w, the “Impurity RRT-0.99” value ([1]; NG Tube Control) was 0.07 % w/w and the “Total degradation products and impurities” value ([1]; NG Tube Control) was 0.38 % w/w. The Imp-D ([1]; NG Tube Mean (n = 3)) was 0.13 % w/w, the “Impurity RRT-0.36” value ([1]; NG Tube Mean (n = 3)) was 0.06 % w/w and the “Impurity RRT-0.54” value ([1]; NG Tube Mean (n = 3)) was 0.07 % w/w. The “Impurity RRT-0.85” value ([1]; NG Tube Mean (n = 3)) was 0.05 % w/w, the “Impurity RRT-0.96” value ([1]; NG Tube Mean (n = 3)) was 0.06 % w/w and the “Impurity RRT-0.99” value ([1]; NG Tube Mean (n = 3)) was 0.06 % w/w. The “Impurity RRT-1.11” value ([1]; NG Tube Mean (n = 3)) was 0.05 % w/w, the “Total degradation products and impurities” value ([1]; NG Tube Mean (n = 3)) was 0.48 % w/w and the Imp-D ([1]; NG Tube N = 1) was 0.13 % w/w. For the same molecule, the “Impurity RRT-0.36” value ([1]; NG Tube N = 1) was 0.05 % w/w, the “Impurity RRT-0.54” value ([1]; NG Tube N = 1) was 0.07 % w/w and the “Impurity RRT-0.85” value ([1]; NG Tube N = 1) was 0.05 % w/w. For the same molecule, the “Impurity RRT-0.96” value ([1]; NG Tube N = 1) was 0.05 % w/w, the “Impurity RRT-0.99” value ([1]; NG Tube N = 1) was 0.07 % w/w and the “Total degradation products and impurities” value ([1]; NG Tube N = 1) was 0.42 % w/w. For the same molecule, the Imp-D ([1]; NG Tube N = 2) was 0.14 % w/w, the “Impurity RRT-0.36” value ([1]; NG Tube N = 2) was 0.06 % w/w and the “Impurity RRT-0.54” value ([1]; NG Tube N = 2) was 0.07 % w/w. The “Impurity RRT-0.96” value ([1]; NG Tube N = 2) was 0.06 % w/w, the “Impurity RRT-0.99” value ([1]; NG Tube N = 2) was 0.07 % w/w and the “Impurity RRT-1.11” value ([1]; NG Tube N = 2) was 0.05 % w/w. For the same molecule, the “Total degradation products and impurities” value ([1]; NG Tube N = 2) was 0.45 % w/w, the Imp-D ([1]; NG Tube N = 3) was 0.13 % w/w and the “Impurity RRT-0.99” value ([1]; NG Tube N = 3) was 0.05 % w/w. The “Total degradation products and impurities” value ([1]; NG Tube N = 3) was 0.18 % w/w, the “impurity profile of compatibility samples versus control sample” value ([1]; NG tube) was “matched” and the unknown impurities ([1]; stability or recovery portions of the studies) was < 0.1%. The “Assay (%)” value ([2]; 34 mg capsule in water passed through syringe/NG tube, sample N = 1) was 92.2%, the “Assay (%)” value ([2]; 34 mg capsule in water passed through syringe/NG tube, sample N = 2) was 92.7% and the “Assay (%)” value ([2]; 34 mg capsule in water passed through syringe/NG tube, sample N = 3) was 96.3%. For the same molecule, the “Assay (%)” value ([2]; NG Tube Control: capsule in water, not passed through syringe/NG system) was 91.5%, the “difference of assay between control sample and mean of 3 NG tube samples” value ([2]; aqueous dispersion of 34 mg capsule) was ≤ 2% and the “effect of in vitro administration through a NG tube on stability” value ([2]; capsule contents added to different vehicles) was “no effect”. For the same molecule, the “Assay Mean % (n = 6)” value ([2]; mean of NG tube samples) was 93.8%.
